Source: patent publication US20090047246A1, “NOVEL INHIBITORS OF HEPATITIS C VIRUS REPLICATION” (InterMune, Inc., priority 2007, published 2009)

The compounds below were run against T1, HCV NS3 helicase (Hepatitis C virus genotype 1b, UniProt P26663) (assay: HCV Helicase Prompt FRET Assay (Example A)). Conditions: HCV NS3 helicase; tables do not say whether Example A or Example B assay; read-out: IC50 Activity.
T1 construct: full-length NS3 (1-631), purified at Array BioPharma
Format: biochemical
Procedure, shortened: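 Full-length NS3 (1-631), 5 or 6 nM, preincubated 5 min with compound, then unwinds 50 nM FAM/BHQ-1 duplex substrate with 250 nM capture strand and 300 μM ATP in 25 mM MOPS pH 7.0, 1.5 mM MgCl2, 0.005% Triton X-100, 2% DMSO. Fluorescence (485/535 nm) followed ~30 min at room temperature; IC50 from initial rates by 4- or 5-parameter fit.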

T1 sequence (P26663 1027-1657): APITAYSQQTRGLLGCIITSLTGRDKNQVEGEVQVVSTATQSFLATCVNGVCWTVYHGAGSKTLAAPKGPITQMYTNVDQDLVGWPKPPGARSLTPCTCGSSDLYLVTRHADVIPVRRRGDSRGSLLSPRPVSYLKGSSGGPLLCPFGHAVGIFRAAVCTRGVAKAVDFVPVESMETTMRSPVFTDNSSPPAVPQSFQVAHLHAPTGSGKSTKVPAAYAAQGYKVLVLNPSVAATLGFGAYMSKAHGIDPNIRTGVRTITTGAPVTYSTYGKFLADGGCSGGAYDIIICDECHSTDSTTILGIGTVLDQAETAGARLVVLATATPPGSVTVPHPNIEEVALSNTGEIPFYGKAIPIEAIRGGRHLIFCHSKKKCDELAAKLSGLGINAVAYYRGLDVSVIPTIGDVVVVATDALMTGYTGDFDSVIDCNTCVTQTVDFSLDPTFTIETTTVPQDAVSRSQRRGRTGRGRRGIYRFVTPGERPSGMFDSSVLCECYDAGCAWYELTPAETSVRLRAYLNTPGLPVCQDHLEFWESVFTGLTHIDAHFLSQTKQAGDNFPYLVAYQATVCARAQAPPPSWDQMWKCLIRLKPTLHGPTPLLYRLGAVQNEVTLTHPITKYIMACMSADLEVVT

| SMILES | IC50 [µM] |
| --- | --- |
| Cc1ccc(-c2ccc(Cc3[nH]c4ccccc4c3CC(=O)O)cc2)cc1Cl [Example 291] | < 10 |
| CC(=O)Nc1ccc(-c2ccc(Cc3[nH]c4ccccc4c3CC(=O)O)cc2)cc1 [Example 292] | 10 to 50 |
| CC(=O)Nc1cccc(-c2ccc(Cc3[nH]c4ccccc4c3CC(=O)O)cc2)c1 [Example 293] | 10 to 50 |
| O=C(O)Cc1c(Cc2ccc(-c3ccccc3Cl)cc2)[nH]c2ccc(Br)cc12 [Example 294] | < 10 |
| O=C(O)Cc1c(Cc2ccc(-c3ccccc3)cc2)[nH]c2ccccc12 [Example 295] | < 10 |
| O=C(O)Cc1c(Cc2cccc(-c3cccc(C(F)(F)F)c3)c2)[nH]c2ccccc12 [Example 296] | < 10 |
| CSc1cccc(-c2cccc(Cc3[nH]c4ccccc4c3CC(=O)O)c2)c1 [Example 297] | < 10 |
| COc1cccc(-c2cccc(Cc3[nH]c4ccccc4c3CC(=O)O)c2)c1 [Example 298] | < 10 |
| COc1ccc(-c2cccc(Cc3[nH]c4ccccc4c3CC(=O)O)c2)cc1 [Example 299] | < 10 |
| O=C(O)Cc1c(Cc2cccc(-c3cccc(CO)c3)c2)[nH]c2ccccc12 [Example 300] | < 10 |
| NC(=O)c1cccc(-c2cccc(Cc3[nH]c4ccccc4c3CC(=O)O)c2)c1 [Example 301] | 10 to 50 |
| CC(C)c1cccc(-c2cccc(Cc3[nH]c4ccccc4c3CC(=O)O)c2)c1 [Example 302] | < 10 |
| O=C(O)Cc1c(Cc2cccc(-c3cccc(Cl)c3Cl)c2)[nH]c2ccccc12 [Example 303] | < 10 |
| O=C(O)Cc1c(Cc2ccc(-c3ccccc3)cc2)oc2ccccc12 [Example 305] | 10 to 50 |
| O=C(O)Cc1c(Cc2ccc(-c3ccccc3)cc2)sc2ccccc12 [Example 306] | < 10 |
| O=C(O)Cc1c(Cc2cccc(-c3cccc(Cl)c3Cl)c2)oc2ccccc12 [Example 307] | < 10 |
| O=C(O)Cc1c(Cc2cccc(-c3ccc(Cl)cc3Cl)c2)oc2ccccc12 [Example 308] | < 10 |
| O=C(O)Cc1c(Cc2cccc(-c3ccc(Cl)c(Cl)c3)c2)oc2ccccc12 [Example 309] | < 10 |
| O=C(O)Cc1c(Cc2cccc(-c3cc(Cl)cc(Cl)c3)c2)oc2ccccc12 [Example 310] | < 10 |

| SMILES | IC50 [µM] |
| --- | --- |
| CC(C)c1cccc(-c2cccc(Cc3oc4ccccc4c3CC(=O)O)c2)c1 [Example 311] | < 10 |
| O=C(O)Cc1c(C(=O)c2ccc(-c3ccccc3)cc2)[nH]c2ccc(Br)cc12 [Example 312] | 10 to 50 |
| Cc1cc([N+](=O)[O-])ccc1-n1cc(CP(=O)(O)O)c2cc(Br)ccc21 [Example 313] | 10 to 50 |
| CS(=O)(=O)c1ccc(-n2cc(CP(=O)(O)O)c3cc(Br)ccc32)cc1 [Example 314] | 10 to 50 |
| O=P(O)(O)Cc1cn(-c2ccc(S(=O)(=O)CCO)cc2)c2ccc(Br)cc12 [Example 315] | 10 to 50 |
| N#Cc1ccnc(-n2cc(CP(=O)(O)O)c3cc(Br)ccc32)c1 [Example 316] | 10 to 50 |
| O=[N+]([O-])c1ccc(-n2cc(CP(=O)(O)O)c3cc(Br)ccc32)nc1 [Example 317] | < 10 |
| O=C(O)Cc1c[nH]c2ncccc12 [Example 318] | > 50 |
| Cc1cc([N+](=O)[O-])ccc1-n1cc(CC(=O)O)c2cccnc21 [Example 319] | > 50 |
| Cc1cc([N+](=O)[O-])ccc1-n1cc(I)c2cc(Br)cnc21 [Example 320] | > 50 |
| C#Cc1cn(-c2ccc([N+](=O)[O-])cc2C)c2ncc(Br)cc12 [Example 321] | > 50 |
| COC(=O)/C=C/c1cnc2c(c1)c(/C=C/C(=O)OC)cn2-c1ccc([N+](=O)[O-])cc1C [Example 322] | 10 to 50 |
| Cc1cc([N+](=O)[O-])ccc1-n1cc(/C=C/C(=O)O)c2cc(/C=C/C(=O)O)cnc21 [Example 323] | > 50 |
| Cc1cc([N+](=O)[O-])ccc1-n1cc(CC(=O)O)c2cc(Br)cnc21 [Example 324] | > 50 |
| O=Cc1c[nH]c2cnc(OCc3ccccc3)cc12 [Example 326] | > 50 |
| Cc1cc([N+](=O)[O-])ccc1-n1cc(C=O)c2cc(OCc3ccccc3)ncc21 [Example 327] | > 50 |
| O=C(O)Cc1c(Cc2csc3ccc(Cl)cc23)[nH]c2cc(OCc3ccccc3)ccc12 [Example 347] | < 10 |
| O=C(O)Cc1c(Cc2csc3ccc(Cl)cc23)n(Cc2csc3ccc(Cl)cc23)c2cc(OCc3ccccc3)ccc12 [Example 348] | < 10 |

Results, then the compound that gave them:

| IC50 [µM] | SMILES |
| --- | --- |
| > 50 | COC(=O)/C=C/c1cn(-c2ccc([N+](=O)[O-])cc2C)c2ncc(OCc3ccccc3)cc12 [Example 328] |
| > 50 | COC(=O)C=Cc1cn(-c2ccc([N+](=O)[O-])cc2C)c2cnc(OCc3ccccc3)cc12 [Example 329] |
| > 50 | Cc1cc([N+](=O)[O-])ccc1-n1cc(/C=C/C(=O)O)c2cc(Br)cnc21 [Example 330] |
| 10 to 50 | Cc1cc([N+](=O)[O-])ccc1-n1cc(C(=O)C(=O)O)c2cc(Br)cnc21 [Example 332] |
| > 50 | Cc1cc([N+](=O)[O-])ccc1-n1cc(C=CC(=O)O)c2cc(OCc3ccccc3)ncc21 [Example 333] |
| 10 to 50 | COC(=O)/C=C/c1cnc2c(c1)c(CC(=O)O)cn2-c1ccc(NCCC(=O)OC)cc1C [Example 334] |
| 10 to 50 | O=C(O)Cc1cn(-c2ccc([N+](=O)[O-])cc2[N+](=O)[O-])c2ncc(Br)cc12 [Example 337] |
| > 50 | COC(OC)c1cc([N+](=O)[O-])ccc1-n1cc(CC(=O)O)c2cc(Br)ccc21 [Example 338] |
| 10 to 50 | O=C(O)Cc1cn(-c2ccc([N+](=O)[O-])cc2C2OCCO2)c2ccc(Br)cc12 [Example 339] |
| < 10 | O=C(O)Cc1cn(Cc2csc3ccc(Cl)cc23)c2cc(OCc3ccccc3)ccc12 [Example 340] |
| > 50 | COc1ccc2c(CC(=O)O)cn(-c3ccc([N+](=O)[O-])cc3C)c2c1 [Example 341] |
| 10 to 50 | COc1cc2c(cc1OCc1ccccc1)c(CC(=O)O)cn2-c1ccc([N+](=O)[O-])cc1C [Example 342] |
| 10 to 50 | Cc1cc([N+](=O)[O-])ccc1-n1cc(CC(=O)O)c2ccc(OCc3ccccc3)cc21 [Example 343] |
| > 50 | Cc1cc([N+](=O)[O-])ccc1-n1cc(CC(=O)O)c2cc3c(cc21)OCO3 [Example 344] |
| 10 to 50 | COc1ccc2c(CC(=O)O)cn(Cc3csc4ccc(Cl)cc34)c2c1 [Example 345] |
| 10 to 50 | COc1cc2c(cc1OCc1ccccc1)c(CC(=O)O)cn2Cc1csc2ccc(Cl)cc12 [Example 346] |
| 10 to 50 | CCOc1ccc2c(CC(=O)O)cn(Cc3csc4ccc(Cl)cc34)c2c1 [Example 349] |
| > 50 | O=C(OCc1ccccc1)C(Cc1ccccc1)c1cn(Cc2csc3ccc(Cl)cc23)c2cc(OCc3ccccc3)ccc12 (stereo not drawn) [Example 350] |
| < 10 | O=C(O)C(Cc1ccccc1)c1cn(Cc2csc3ccc(Cl)cc23)c2cc(OCc3ccccc3)ccc12 (stereo not drawn) [Example 351] |
| < 10 | C=COc1ccc2c(CC(=O)O)cn(Cc3csc4ccc(Cl)cc34)c2c1 [Example 352] |
| < 10 | O=C(O)Cc1cn(Cc2csc3ccc(Cl)cc23)c2cc(-c3ccccc3)ccc12 [Example 353] |

| IC50 [µM] | SMILES |
| --- | --- |
| > 50 | O=C(O)Cc1cn(CC(=O)O)c2cc(-c3ccccc3)ccc12 [Example 354] |
| > 50 | O=C(O)Cc1c[nH]c2c(Oc3ccc([N+](=O)[O-])cc3)cccc12 [Example 355] |
| < 10 | O=C(O)Cc1cn(Cc2csc3ccc(Cl)cc23)c2c(Oc3ccc([N+](=O)[O-])cc3)cccc12 [Example 356] |
| < 10 | O=C(O)Cc1cn(Cc2csc3ccc(Cl)cc23)c2cc(Oc3ccc([N+](=O)[O-])cc3)ccc12 [Example 357] |
| < 10 | O=C(O)Cc1cn(Cc2csc3ccc(Cl)cc23)c2cc(OCc3ccccc3)c(OCc3ccccc3)cc12 [Example 358] |
| 10 to 50 | O=C(O)Cc1cn(Cc2csc3ccc(Cl)cc23)c2cc(Br)ccc12 [Example 359] |
| < 10 | O=C(O)C(Cc1csc2ccc(Cl)cc12)c1cn(Cc2csc3ccc(Cl)cc23)c2cc(Br)ccc12 (stereo not drawn) [Example 360] |
| < 10 | O=C(O)C(Cc1csc2ccc(Cl)cc12)c1cn(Cc2csc3ccc(Cl)cc23)c2cc(-c3ccco3)ccc12 (stereo not drawn) [Example 361] |
| < 10 | Nc1cccc(-c2ccc3c(CC(=O)O)cn(Cc4csc5ccc(Cl)cc45)c3c2)c1 [Example 363] |
| < 10 | C#Cc1ccc2c(CC(=O)O)cn(Cc3csc4ccc(Cl)cc34)c2c1 [Example 364] |
| < 10 | Nc1cc(-c2ccc3c(CC(=O)O)cn(Cc4csc5ccc(Cl)cc45)c3c2)cc([N+](=O)[O-])c1 [Example 365] |
| < 10 | O=C(O)Cc1c(Cc2csc3ccc(Cl)cc23)n(Cc2ccccc2)c2cc(OCc3ccccc3)ccc12 [Example 366] |
| < 10 | C=CCn1c(Cc2csc3ccc(Cl)cc23)c(CC(=O)O)c2ccc(OCc3ccccc3)cc21 [Example 367] |
| < 10 | Cn1c(Cc2csc3ccc(Cl)cc23)c(CC(=O)O)c2ccc(OCc3ccccc3)cc21 [Example 368] |
| < 10 | O=C(O)Cc1c(Cc2csc3ccc(Cl)cc23)n(CC2CC2)c2cc(OCc3ccccc3)ccc12 [Example 369] |
| < 10 | CCn1c(Cc2csc3ccc(Cl)cc23)c(CC(=O)O)c2ccc(OCc3ccccc3)cc21 [Example 370] |
| < 10 | Cc1cc([N+](=O)[O-])ccc1-n1c(Cc2csc3ccc(Cl)cc23)c(CC(=O)O)c2ccc(OCc3ccccc3)cc21 [Example 371] |
| < 10 | O=C(O)Cc1c(Cc2csc3ccc(Cl)cc23)n(-c2ccc([N+](=O)[O-])cc2)c2cc(OCc3ccccc3)ccc12 [Example 372] |
| < 10 | Nc1cc(N)cc(-c2ccc3c(CC(=O)O)cn(Cc4csc5ccc(Cl)cc45)c3c2)c1 [Example 373] |
| 10 to 50 | O=C(O)Cc1c(Cc2csc3ccc(Cl)cc23)[nH]c2ccc(Br)cc12 [Example 374] |
